The source of these data is patent US4458079A, “Sulfur-containing imidazoles” (Bristol-Myers Company, priority 1980, dated 1984).

In brackets after ≈: the same amount, converted by molar mass. Where only a bound is given, the exact number is not on record here.

What all share (format): cell-based
In test [1] the test system is Trichophyton mentagrophytes. The test is described as follows: MIC in Sabouraud broth plus 1% ionagar (agar dilution). To be noted: 120 h, strain A 9870, five days at 28°, read-out: Minimum Inhibitory Concentration (MIC). From the text:
(§1) The antifungal activity of some of the compounds of Formula I against a number of human and animal pathogenic fungi is given in Table I for either a liquid medium (Sabouraud broth) or an agar medium (Sabouraud broth plus 1% ionagar). Two-fold serial dilutions were made with Sabouraud's liquid medium from stock solutions of the test compounds, usually in dimethyl sulfoxide, N,N-dimethylformamide or water. The Minimum Inhibitory Concentrations (MIC's), which were considered to be the minimum concentrations of the test compounds in micrograms per milliliter which prevent grossly detectable growth of the test organisms, were then determined after inoculation of the medicated broths with the test organisms, and incubation at the appropriate temperature and for the appropriate time interval. Candida species were incubated for 24 hours at 37°, while the dermatophytes Trichophyton rubrum, Trichophyton mentagrophytes and Microsporum canis were incubated for five days at 28°. The agar dilution assay was essentially the same as the broth dilution assay except that 1% inoagar was added to the Sabouraud broth.

In test [2] the test system is Candida albicans. Described as above. To be noted: 24 h, read-out: Minimum Inhibitory Concentration (MIC).
Excerpt: as §1

Test [3] concerns Candida krusei. Described as above. The note with it: Pichia kudriavzevii, strain A 15052, 24 hours at 37°, read-out: Minimum Inhibitory Concentration (MIC).
Excerpt: as §1

The test system of test [4] is Candida tropicalis. Described as above. To be noted: strain A 15051, 24 hours at 37°, read-out: Minimum Inhibitory Concentration (MIC).
Excerpt: as §1

Test [5] concerns Trichophyton rubrum. The test is described as above. The note with it: 120 h, strain A 22789, five days at 28°, read-out: Minimum Inhibitory Concentration (MIC).
Excerpt: as §1

Test [6] concerns Microsporum canis. The description is as above. The note with it: 120 h, read-out: Minimum Inhibitory Concentration (MIC).
Excerpt: as §1

Test [7] has as its system Trichophyton mentagrophytes. The test is described as follows: MIC in Sabouraud broth (broth dilution). To be noted: 120 h, strain A 9870, five days at 28°, read-out: Minimum Inhibitory Concentration (MIC).
Excerpt: as §1

For test [8], the system named is Candida albicans. Nature of the test: MIC in Sabouraud broth (broth dilution). To be noted: 24 h, read-out: Minimum Inhibitory Concentration (MIC).
Excerpt: as §1

Test [9] has as its system Candida krusei. The test is described as follows: MIC in Sabouraud broth (broth dilution). The note with it: Pichia kudriavzevii, strain A 15052, 24 hours at 37°, read-out: Minimum Inhibitory Concentration (MIC).
Excerpt: as §1

Test [10] concerns Candida tropicalis. The test is described as follows: MIC in Sabouraud broth (broth dilution). To be noted: strain A 15051, 24 hours at 37°, read-out: Minimum Inhibitory Concentration (MIC).
Excerpt: as §1

Test [11] deals with Trichophyton rubrum. Nature of the test: MIC in Sabouraud broth (broth dilution). The note with it: 120 h, strain A 22789, five days at 28°, read-out: Minimum Inhibitory Concentration (MIC).
Excerpt: as §1

Test [12] concerns Microsporum canis. Nature of the test: MIC in Sabouraud broth (broth dilution). The note with it: 120 h, read-out: Minimum Inhibitory Concentration (MIC).
Excerpt: as §1

Setting [13] is: strain A 15049, 24 hours at 37°.
Where [14] appears, read: strain A 9872, five days at 28°.
The mark [15] stands for this setting: strain A 22494, five days at 28°.

Take `Clc1cccc(Cl)c1CSC(Cn1ccnc1)SCc1c(Cl)cccc1Cl.O=C(O)C(=O)O` [2(h), 1-[2,2-bis(2,6-dichlorobenzylthio)ethyl]-1H-imidazole hydrogen oxalate]: the MIC in test [1] came out at 1 µg/mL; in the test on Candida albicans [2] (strain A 1505, 24 hours at 37°), 16 µg/mL; in the test with Candida albicans [2] (strain A 9540, 24 hours at 37°), 8 µg/mL; with Candida albicans [2] (setting [13]) it was 16 µg/mL; in the test with Candida krusei [3] it was 32 µg/mL; in the test on Candida tropicalis [4], 63 µg/mL. The values for the MIC in the test with Trichophyton rubrum [5], in the test on Microsporum canis [6] (setting [14]) and in the test with Microsporum canis [6] (setting [15]) were 0.5 µg/mL, 1 µg/mL and 0.25 µg/mL, respectively.

Turning to `CSc1ccc(CSC(Cn2ccnc2)SCc2ccc(SC)cc2)cc1.Cl` [2(l), 1-[2,2-bis(4-methylthiobenzylthio)ethyl]-1H-imidazole hydrochloride], the MIC in test [7] was 0.063 µg/mL; with Candida albicans [8] (strain A 1505, 24 hours at 37°), > 16 µg/mL; in the test with Candida albicans [8] (strain A 9540, 24 hours at 37°) it was > 16 µg/mL; with Candida albicans [8] (setting [13]), > 16 µg/mL; in the test on Candida krusei [9] it was 8 µg/mL; in the test with Candida tropicalis [10] it was > 16 µg/mL. Besides, the MIC in the test on Trichophyton rubrum [11] came out at 0.063 µg/mL; in the test with Microsporum canis [12] (setting [14]) it was 0.063 µg/mL; in the test on Microsporum canis [12] (setting [15]), 0.13 µg/mL.

On to `Cc1ccc(CSC(Cn2ccnc2)SCc2ccc(C)cc2)cc1.Cl` [2(j), 1-[2,2-bis(4-methylbenzylthio)ethyl]-1H-imidazole hydrochloride], for which the MIC was 0.063 µg/mL in test [7]; 4 µg/mL in the test on Candida albicans [8] (strain A 1505, 24 hours at 37°); 4 µg/mL in the test on Candida albicans [8] (strain A 9540, 24 hours at 37°); 4 µg/mL with Candida albicans [8] (setting [13]); 8 µg/mL with Candida krusei [9]; > 16 µg/mL in the test with Candida tropicalis [10]. Besides, the MIC with Trichophyton rubrum [11], in the test with Microsporum canis [12] (setting [14]) and with Microsporum canis [12] (setting [15]) was 0.063 µg/mL each time.

Take `Cl.Clc1ccc(CSC(Cn2ccnc2)SCc2ccc(Cl)s2)s1` [2(p), 1-[2,2-bis(5-chloro-2-thienylmethylthio)ethyl]-1H-imidazole hydrochloride]: the MIC in test [1] came out at 0.5 µg/mL; in the test on Candida albicans [2] (strain A 1505, 24 hours at 37°) it was 4 µg/mL; with Candida albicans [2] (strain A 9540, 24 hours at 37°) it was 4 µg/mL; with Candida albicans [2] (setting [13]) it was 4 µg/mL; in the test on Candida krusei [3], 8 µg/mL; with Candida tropicalis [4] it was 125 µg/mL. The MIC in the test with Trichophyton rubrum [5] stood at 0.5 µg/mL; in the test with Microsporum canis [6] (setting [14]) it was 0.25 µg/mL; in the test with Microsporum canis [6] (setting [15]), 0.032 µg/mL.

As for `Cl.Clc1ccc(CSC(Cn2ccnc2)Sc2ccc(Cl)cc2)cc1` (stereo not drawn) [Example 5, 1-[2-(4-Chlorobenzylthio)-2-(4-chlorophenylthio)ethyl]-1H-imidazole Hydrochloride], the MIC was 0.063 µg/mL in [1]; 4 µg/mL in the test with Candida albicans [2] (strain A 1505, 24 hours at 37°); 4 µg/mL in the test on Candida albicans [2] (strain A 9540, 24 hours at 37°); 4 µg/mL in the test on Candida albicans [2] (setting [13]); 4 µg/mL with Candida krusei [3]; 32 µg/mL in the test on Candida tropicalis [4]. The results for the MIC in the test with Trichophyton rubrum [5], in the test on Microsporum canis [6] (setting [14]) and in the test with Microsporum canis [6] (setting [15]) were 0.25 µg/mL, 0.25 µg/mL and 0.032 µg/mL, respectively.

As to `Cl.Clc1ccc(CSC(Cn2ccnc2)SCc2ccc(Cl)cc2)cc1` [Example 1, 1-[2,2-Bis(4-chlorobenzylthio)ethyl]-1H-imidazole Hydrochloride], the MIC in test [7] was 0.032 µg/mL; in the test with Candida albicans [8] (strain A 1505, 24 hours at 37°) it was 2 µg/mL; with Candida albicans [8] (strain A 9540, 24 hours at 37°), 1 µg/mL; in the test on Candida albicans [8] (setting [13]) it was 2 µg/mL; in the test with Candida krusei [9], 0.5 µg/mL; in the test with Candida tropicalis [10] it was > 16 µg/mL. Moreover, the MIC is 0.063 µg/mL with Trichophyton rubrum [11], 0.032 µg/mL in the test on Microsporum canis [12] (setting [14]) and 0.063 µg/mL in the test on Microsporum canis [12] (setting [15]).

Take `Clc1ccc(CSC(Cn2ccnc2)SCc2ccc(Cl)cc2Cl)c(Cl)c1` [2(g), 1-[2,2-bis(2,4-dichlorobenzylthio)ethyl]-1H-imidazole]: the MIC is 0.063 µg/mL (≈ 0.132 µM) in test [7]; > 16 µg/mL in the test on Candida albicans [8] (strain A 1505, 24 hours at 37°); > 16 µg/mL in the test with Candida albicans [8] (strain A 9540, 24 hours at 37°); > 16 µg/mL with Candida albicans [8] (setting [13]); > 16 µg/mL with Candida krusei [9]; > 16 µg/mL in the test with Candida tropicalis [10]. The results for the MIC in the test with Trichophyton rubrum [11], in the test on Microsporum canis [12] (setting [14]) and in the test on Microsporum canis [12] (setting [15]) were 0.063 µg/mL (≈ 0.132 µM), 0.032 µg/mL (≈ 0.0669 µM) and 0.063 µg/mL (≈ 0.132 µM), respectively.
